Assay: method code SF-AS, from DOI: 10.1248/cpb.30.4175, PMID: 7165882

SMILES	logP
Cc1ccc(COC(=O)N(C)C)cc1	2.63
CN(C)C(=O)OCc1cccc(Cl)c1	2.82
CN(C)C(=O)OCc1ccccc1	2.16
CN(C)C(=O)OCc1ccc(I)cc1	3.32
CN(C)C(=O)OCc1ccc(F)cc1	2.3
CN(C)C(=O)OCc1ccc(OC(=O)N(C)C)cc1	1.59
COc1ccc(COC(=O)N(C)C)cc1	2.2
CN(C)C(=O)OCc1ccc([N+](=O)[O-])cc1	1.95
CN(C)C(=O)OCc1ccc(OCc2ccccc2)cc1	3.27
CN(C)C(=O)OCc1ccc(Br)cc1	3.01
CN(C)C(=O)OCc1ccc(Cl)cc1	2.93
COc1cccc(COC(=O)N(C)C)c1	2.09
CN(C)C(=O)OCc1ccc(C#N)cc1	1.67
